Earlier results in US20250350689A1, “INTRAVENOUS DOFETILIDE AND USES THEREOF” (Hyloris Developments SA, priority 2023, published 2025).
Values joined by “and” are separate entries in the source; they are usually repeats but may differ in a detail not shown here. Equal entries are not always repeated. Where two headings read alike, the source gives them in different places.

Columns and labels:
[1] = not given; remark: listed apart in the source
[2] = clinical studies, life threatening arrhythmias
[3] = tested on: QTc interval; settings: slope of QTc versus dofetilide plasma concentration, Sedgwick et al

plasma concentration (infusion of 3.0 μg/mL): 5.35 ng/mL | IV dofetilide kinetics (relationship between IV dose and serum concentration): linear | peak plasma concentration (single dose, 10 min. IV infusion of 1.5 μg/kg): 1.74 ng/mL and 1.7 ng/mL | plasma concentration Cmax ([1]; 500 μg oral dose, single dose): 1.9 ng/mL | time to reach a steady state concentration ([1]; oral dofetilide): at least 3 days
SMILES: CN(CCOc1ccc(NS(C)(=O)=O)cc1)CCc1ccc(NS(C)(=O)=O)cc1 [dofetilide]
safety in patients with poor heart function / heart failure [2]: not to increase life threatening arrhythmias | safety in patients with poor heart function / heart failure ([2]; listed as Dofetilide): safe | QTc change per plasma concentration [3]: 15 to 25 ms/ng/mL
